Data published in paper PMC9870305, “Efficacy of ultra-short, response-guided sofosbuvir and daclatasvir therapy for hepatitis C in a single-arm mechanistic pilot study” (eLife, 2023).
Where two headings read alike, the source gives them in different places. Blank lines part the entries; values can stand above or below the compound they belong to.

Legend:
[1] = Plasma pharmacokinetics, naïve pooled non-compartmental analysis (days 0 and 28); type: in vivo, human; design: AUClast / AUC(0-t) / AUCINF / AUC(0-inf): concentration or dose not given beside the values; settings: for AUCINF / AUC(0-inf): extrapolated to infinity; for AUClast / AUC(0-t): to 8 hours for SOF, 24 hours for GS-331007 and DCV; for drug accumulation: between day 0 and 28; for half-life: read-out: t1/2, terminal elimination half-life (converted); for AUC(0-inf): po
Method: (§1) In addition, intensive drug level sampling was conducted in a subset of 40 participants, who were sequentially invited to join an ancillary PK study. In this subgroup, five samples were collected in each participant after the first dose of SOF/DCV and at day 28, according to one of two randomly assigned sampling schedules (A and B). In sampling schedule A, drug levels were measured at 0.5-, 2-, 4-, 6- and 24-hr post-dose; in sampling schedule B, drug levels were measured at 1-, 3-, 5-, 8- and 24-hr post-dose.
(§2) Drug quantification was performed using liquid chromatography-tandem mass spectrometer at Mahidol Oxford Tropical Medicine Research Unit, Bangkok. Two separate analytical assays were developed and validated to quantify SOF plus its metabolite GS-331007, and DCV, respectively. Full methodological details of the PK/PD analysis are provided in Appendix 1.
Intensive drug levels of SOF, its metabolite GS-331007, and DCV from the subset of 40 patients at days 0 and 28, together with any EOT samples at day 28, were analysed using non-compartmental analysis in PKanalix version 2020R1 ([Lixoft, 2022]). Two separate analyses were performed to characterise the pharmacokinetic properties of the study drugs.
In the first, naïve pooled analyses were performed separately on data from days 0 and 28 (not including EOT samples) to derive median pharmacokinetic parameters at each day. In these analyses, the median concentration at each protocol time was calculated. Individual concentration measurements below the LLOQ were set to LLOQ/2 when calculating the median values. It was assumed that the participants had no drug concentrations at time 0.
Sofosbuvir and GS-331007 were extracted from 100 µL of plasma using phospholipid removal in the 96-well plate format (Phree, 8E-S133-TGB, Phenomenex), followed by separation on a Gemini, 50 mm × 2.0 mm I.D. 5 µm, column (00B-4435-B0, Phenomenex). Quantification was performed using selected reaction monitoring for the transitions m/z 530.2–>243.2 (sofosbuvir), 536.2–>243.1 (isotope-labelled internal standard for sofosbuvir), 261.3–>113.1 (GS-331007), and 265.3–>113.1 (isotope-labelled internal standard for GS-331007).
The lower limit of quantification (LLOQ) was set to 1.95 ng/mL for sofosbuvir and 20.5 ng/mL for GS-331007. A total of 9 quality control samples (3×low, 3×mid and 3×high concentration) were analysed for each analyte within each batch of clinical samples (96-well plate), resulting in an accuracy of 2.81–2.93% RSE for sofosbuvir and 2.19–3.50% RSE for GS-331007.
DCV was extracted from 100 µL of plasma using supported liquid extraction in the 96-well plate format (ISOLUTE SLE +96 well plate, 820–0200 P01, Biotage), followed by separation on a Gemini, 50 mm × 2.0 mm I.D. 5 µm, column (00B-4435-B0, Phenomenex). Quantification was performed using selected reaction monitoring for the transitions m/z 739.5–>339.3 (DCV) and 747.5–>339.3 (isotope-labelled internal standard for DCV). The LLOQ was set to 1.64 ng/mL for DCV. A total of 9 quality control samples (3×low, 3×mid and 3×high concentration) were analysed within each batch of clinical samples (96-well plate), resulting in an accuracy of 2.46–2.62% RSE for DCV.
Maximum concentration (Cmax) and time to reach maximum concentration (tmax) were derived directly from the observed drug concentrations. The software’s automatic slope calculator was used to derive the elimination rate (λ) (adjusted R2 value with uniform weighting) and terminal elimination half-life (t1/2). The drug exposure measured as area under the concentration-time curve (AUC) was calculated for each drug using the trapezoidal method. Linear interpolation was used for acceding concentrations and log-linear interpolation for descending concentrations. For the individual analysis, the linear method was used for all measurements due to accumulation between the day 0 and day 28 measurements. […]

[2] = Plasma drug exposure, individual non-compartmental analysis (days 0 and 28 pooled); type: in vivo, human; design: AUC(0-t) / AUClast: concentration or dose not given beside the values; settings: median (5th-95th percentile); for AUC(0-t): human
Method: as §1, §2
In the second analysis, data from days 0 and 28 were pooled for each individual. […] The mean value of drug concentrations was used if patients had two or more samples taken at the same time point. These derived individual drug exposures were used to evaluate the relationship between drug exposure and therapeutic outcome. It was assumed that the participants had no drug concentrations at time 0. In this analysis, the first measurement below LLOQ in a series of LLOQ samples was imputed as LLOQ/2 and the later measurements were ignored. In both approaches, SOF samples taken at ≥24 hr post-dose were excluded. […] In addition, outcome variables and the relationship between outcome variables and drug exposure were evaluated. Additional detail of the PK/PD analysis is provided in Appendix 1.
Maximum concentration (Cmax) and time to reach maximum concentration (tmax) were derived directly from the observed drug concentrations. The software’s automatic slope calculator was used to derive the elimination rate (λ) (adjusted R2 value with uniform weighting) and terminal elimination half-life (t1/2). The drug exposure measured as area under the concentration-time curve (AUC) was calculated for each drug using the trapezoidal method. Linear interpolation was used for acceding concentrations and log-linear interpolation for descending concentrations. For the individual analysis, the linear method was used for all measurements due to accumulation between the day 0 and day 28 measurements. Both the AUC to the last time point (AUClast, 8 hours for SOF and 24 hours for GS-331007 and DCV) and AUC to infinity (AUCinf) were calculated.
Two different sampling schedules were used to collect pharmacokinetic samples on day 0 and day 28, resulting in an overlapping sampling profile overall. Therefore, data collected within an individual on a specific day was not dense enough to justify a non-compartment analysis. […] Two separate pharmacokinetic analyses were carried out. A naïve-pooled analysis was performed separately conducted on day 0 and 28 data. […] Therefore, a second analysis was performed in which the data from day 0 and 28 were pooled for each individual. […] However, the individual analysis should still generate median exposure values for each patient, which can be linked with treatment outcome. Another drawback is that no pre-dose samples were collected.

[3] = cited from earlier work; for dose proportionality of AUC: dose range of 200–1200 mg, ref Smolders et al., 2019
[4] = individual analysis, all patients (n=37)

t1/2, terminal elimination half-life ([1]; Day 0): 9.20 h
tmax ([1]; Day 0): 3.00 h
Cmax ([1]; Day 0, plasma, oral SOF 400 mg + DCV 60 mg): 988 ng/mL
AUCINF ([1]; Day 0): 12,700 h×ng/mL
AUClast ([1]; Day 0): 10,500 h×ng/mL
t1/2, terminal elimination half-life ([1]; Day 28): 12.4 h
tmax ([1]; Day 28): 4.00 h
Cmax ([1]; Day 28, plasma): 1,230 ng/mL
AUCINF ([1]; Day 28): 20,400 h×ng/mL
AUClast ([1]; Day 28): 14,600 h×ng/mL
drug accumulation [1]: Drug accumulation was observed
Median AUClast ([2]; 4-week cures (n=15)): 11,700 (8420–14,100) h×ng/ml
Median AUClast ([2]; 4-week failures (n=8)): 15,100 (9240–19,700) h×ng/ml
Median AUClast ([2]; 8-week cures (n=14)): 14,000 (10,200–17,400) h×ng/ml
AUClast [2, 4]: 3,430 (2,200-4,720) h×ng/mL
SMILES: C[C@@]1(F)[C@H](O)[C@@H](CO)O[C@H]1n1ccc(=O)[nH]c1=O [GS-331007]
dose proportionality of AUC [3]: near dose proportional

drug accumulation [1]: Drug accumulation was observed
Cmax ([1]; human, oral, Day 28, plasma, read-out: Cmax): 1110 ng/mL
AUC(0-t) ([1]; human, plasma, oral, Day 0): 11400 ng·h/mL
half-life ([1]; human, plasma, oral, Day 28): 8.18 h
AUC(0-t) ([1]; human, plasma, oral, Day 28): 12400 ng·h/mL
half-life ([1]; human, plasma, oral, Day 0): 7.31 h
tmax ([1]; human, plasma, oral, Day 0, read-out: tmax): 3 h
AUC(0-inf) ([1]; human, plasma, Day 0): 12800 ng·h/mL
AUC(0-inf) ([1]; human, plasma, Day 28): 14400 ng·h/mL
Cmax ([1]; human, Day 0, plasma, oral SOF 400 mg + DCV 60 mg, read-out: Cmax): 1170 ng/mL
AUC(0-t) ([2]; plasma, oral, 4-week cures (n=15), read-out: Median AUClast): 13000 ng·h/mL
AUC(0-t) ([2]; plasma, oral, 4-week failures (n=8), read-out: Median AUClast): 13200 ng·h/mL
AUC(0-t) ([2]; plasma, oral, 8-week cures (n=14), read-out: Median AUClast): 14200 ng·h/mL
AUC(0-t) ([2]; plasma, oral, individual analysis, all patients (n=37), read-out: AUClast): 9770 ng·h/mL
SMILES: COC(=O)N[C@H](C(=O)N1CCC[C@H]1c1nc(-c2ccc(-c3ccc(-c4c[nH]c([C@@H]5CCCN5C(=O)[C@@H](NC(=O)OC)C(C)C)n4)cc3)cc2)c[nH]1)C(C)C [Daclatasvir, daclatasvir]

SMILES: CC(C)OC(=O)[C@H](C)N[P@](=O)(OC[C@H]1O[C@@H](n2ccc(=O)[nH]c2=O)[C@](C)(F)[C@@H]1O)Oc1ccccc1 [Sofosbuvir, sofosbuvir]
tmax ([1]; Day 0): 1.00 h
half-life ([1]; human, in vivo, Day 0): 0.67 h
AUC(0-t) ([1]; human, in vivo, Day 0): 1550 ng·h/mL
half-life ([1]; human, in vivo, Day 28): 0.65 h
AUC(0-t) ([1]; human, in vivo, Day 28): 1600 ng·h/mL
AUC(0-inf) ([1]; human, in vivo, Day 0): 1550 ng·h/mL
AUC(0-inf) ([1]; human, in vivo, Day 28): 1600 ng·h/mL
Cmax ([1]; human, in vivo, Day 0, plasma, oral SOF 400 mg + DCV 60 mg, read-out: Cmax): 1320 ng/mL
Cmax ([1]; human, in vivo, Day 28, plasma, read-out: Cmax): 1070 ng/mL
AUC(0-t) ([2]; in vivo, 4-week cures (n=15), read-out: Median AUClast): 2360 ng·h/mL
AUC(0-t) ([2]; in vivo, 4-week failures (n=8), read-out: Median AUClast): 2220 ng·h/mL
AUC(0-t) ([2]; in vivo, 8-week cures (n=14), read-out: Median AUClast): 2120 ng·h/mL
AUClast [2, 4]: 1,140 (598-2,150) h×ng/mL
dose proportionality of AUC [3]: near dose proportional
half-life ([3]; ref de Kanter et al., 2014): less than 1 hr
